Measurements published in patent US9334263B2, “Compositions useful for treating disorders related to kit” (BLUEPRINT MEDICINES CORPORATION, priority 2013, dated 2016).
pIC50: −log10 of the molar value.

Experiments:
[1] = molecular target: T1, wild type Kit (Homo sapiens, UniProt P10721); assay: Kit wild type assay at Km (Caliper electrophoretic mobility shift); type: biochemical; details: 400 uM ATP, 25 C, 90 minutes; read-out: WT KIT
T1 construct: purchased Carna Bioscience 08-156
Protocol: (§1) In order to assess the activity of chemical compounds against the relevant kinase of interest, the Caliper LifeSciences electrophoretic mobility shift technology platform is used. Fluorescently labeled substrate peptide is incubated in the presence of kinase and ATP so that a […] proportion of the peptide is phosphorylated. At the end of the reaction, the mix of phosphorylated (product) and non-phosphorylated (substrate) peptides are passed through the microfluidic system of the Caliper EZ Reader 2, under an applied potential difference. The presence of the phosphate group on the product peptide provides a difference in mass and charge between those of the substrate peptide, resulting in a separation of the substrate and product pools in the sample. As the pools pass a LEDS within the instrument, these pools are detected and resolved as separate peaks. The ratio between these peaks therefore reflects the activity of the chemical matter at that concentration in that well, under those conditions.
(§2) The reaction was stopped by the addition of 70 ul of Stop buffer (100 mM HEPES pH 7.5, 0.015% Brij 35, 35 mM EDTA and 0.2% of Coating Reagent 3 (Caliper Lifesciences)). The plate was then read on a Caliper EZReader 2 (protocol settings: −1.9 psi, upstream voltage −700, downstream voltage −3000, post sample sip 35 s).

[2] = molecular target: T2, Kit D816V (HMC1.2 cells, Kit V560G and D816V) (Homo sapiens, UniProt P10721, D816V/V560G); assay: HMC1.2 autophosphorylation assay (AlphaLISA, phospho-Y719 c-Kit); type: cell-based; details: Kit autophosphorylation at tyrosine 719, 90 minutes, read-out: Cellular Activity
T2 construct: endogenous in cells; host or cells: HMC1.2 cells
T2 sequence (P10721 26-976 V560G/D816V): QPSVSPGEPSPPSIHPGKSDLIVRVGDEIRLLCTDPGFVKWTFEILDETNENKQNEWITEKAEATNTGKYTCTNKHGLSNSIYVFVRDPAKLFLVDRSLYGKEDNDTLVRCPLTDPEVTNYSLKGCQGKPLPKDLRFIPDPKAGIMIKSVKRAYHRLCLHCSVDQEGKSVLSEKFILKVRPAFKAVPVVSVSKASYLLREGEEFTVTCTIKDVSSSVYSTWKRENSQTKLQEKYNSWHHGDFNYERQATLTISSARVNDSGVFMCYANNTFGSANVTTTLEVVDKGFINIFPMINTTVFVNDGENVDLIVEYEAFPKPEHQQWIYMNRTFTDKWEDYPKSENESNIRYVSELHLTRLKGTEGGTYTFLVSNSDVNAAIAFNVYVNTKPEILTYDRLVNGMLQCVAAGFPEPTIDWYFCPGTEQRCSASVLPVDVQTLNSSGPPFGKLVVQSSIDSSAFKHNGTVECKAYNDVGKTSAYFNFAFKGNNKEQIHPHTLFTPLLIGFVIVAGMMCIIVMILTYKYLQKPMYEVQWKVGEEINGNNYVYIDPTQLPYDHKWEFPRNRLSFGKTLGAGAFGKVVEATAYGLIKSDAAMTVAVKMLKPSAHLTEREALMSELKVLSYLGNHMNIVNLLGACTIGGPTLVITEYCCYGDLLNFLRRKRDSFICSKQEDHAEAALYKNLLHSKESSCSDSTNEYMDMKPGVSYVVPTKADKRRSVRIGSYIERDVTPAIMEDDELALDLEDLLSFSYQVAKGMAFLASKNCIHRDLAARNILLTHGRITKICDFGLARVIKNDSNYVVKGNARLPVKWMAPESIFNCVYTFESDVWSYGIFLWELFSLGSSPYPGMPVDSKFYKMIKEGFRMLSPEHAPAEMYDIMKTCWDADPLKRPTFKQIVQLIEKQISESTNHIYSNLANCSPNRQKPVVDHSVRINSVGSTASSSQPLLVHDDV
In short: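 Serum-starved (overnight, serum-free IMDM) HMC1.2 cells were treated for 90 min with a 10-point compound series (25 uM–95.4 pM, 0.25% DMSO final). Lysates were probed with phospho-Y719 and total c-Kit antibodies (15 nM final) plus AlphaLISA acceptor and streptavidin donor beads (2 h each, RT), with AlphaScreen read-out.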

[3] = molecular target: T3, D816V Kit (Homo sapiens, UniProt P10721, D816V); assay: Kit D816V assay at Km (Caliper electrophoretic mobility shift); type: biochemical; details: 15 uM ATP, 25 C, 90 minutes
T3 construct: purchased Carna Bioscience 08-156
T3 sequence (P10721 26-976 D816V): as the sequence (P10721 26-976 V560G/D816V) above, with G535V counted along it
In short: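 Read-out is the ratio of phosphorylated to unphosphorylated fluorescent peptide, resolved by mobility shift on a Caliper EZ Reader 2.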

[4] = molecular target: T4, PDGFRA D842V (Homo sapiens, UniProt P16234, D842V); assay: PDGFRA D842V assay at Km (Caliper electrophoretic mobility shift); type: biochemical; details: 15 uM ATP, 25 C, 90 minutes; read-out: PDFGRA D842V
T4 construct: purchased ProQinase 0761-0000-1
T4 sequence (P16234 24-1089 D842V): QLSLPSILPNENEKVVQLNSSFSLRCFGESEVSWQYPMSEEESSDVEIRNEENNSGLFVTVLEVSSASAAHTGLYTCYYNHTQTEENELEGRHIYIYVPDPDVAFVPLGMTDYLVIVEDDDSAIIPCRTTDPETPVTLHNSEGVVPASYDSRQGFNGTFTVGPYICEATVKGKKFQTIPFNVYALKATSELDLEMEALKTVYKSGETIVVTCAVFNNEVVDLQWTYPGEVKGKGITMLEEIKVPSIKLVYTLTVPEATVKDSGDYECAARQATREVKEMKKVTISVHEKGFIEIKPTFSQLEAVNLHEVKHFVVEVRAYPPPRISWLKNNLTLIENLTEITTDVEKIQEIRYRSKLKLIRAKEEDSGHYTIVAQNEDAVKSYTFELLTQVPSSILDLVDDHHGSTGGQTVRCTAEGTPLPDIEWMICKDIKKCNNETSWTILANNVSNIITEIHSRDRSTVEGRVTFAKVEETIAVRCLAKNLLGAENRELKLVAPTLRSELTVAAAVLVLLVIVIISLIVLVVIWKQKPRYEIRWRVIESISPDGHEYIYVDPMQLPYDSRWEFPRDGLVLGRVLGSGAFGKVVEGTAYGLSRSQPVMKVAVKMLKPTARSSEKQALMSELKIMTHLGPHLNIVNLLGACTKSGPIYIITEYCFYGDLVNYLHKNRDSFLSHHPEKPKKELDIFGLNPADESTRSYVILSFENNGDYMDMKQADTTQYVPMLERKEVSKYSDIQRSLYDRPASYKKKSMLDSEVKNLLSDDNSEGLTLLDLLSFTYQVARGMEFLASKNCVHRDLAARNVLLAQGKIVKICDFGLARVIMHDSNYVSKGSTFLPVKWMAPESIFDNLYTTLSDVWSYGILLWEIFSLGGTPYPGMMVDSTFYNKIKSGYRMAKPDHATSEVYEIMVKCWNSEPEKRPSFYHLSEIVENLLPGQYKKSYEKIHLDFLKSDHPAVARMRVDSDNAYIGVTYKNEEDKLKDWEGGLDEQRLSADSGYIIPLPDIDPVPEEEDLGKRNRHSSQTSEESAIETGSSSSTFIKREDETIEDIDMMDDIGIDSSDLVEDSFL
Protocol: as §1
as §2, with “voltage −500,” for “voltage −700,”, “sip 38” for “sip 35”

T1 sequence (P10721 26-976): as the sequence (P10721 26-976 V560G/D816V) above, with G535V, V791D counted along it

Row | SMILES | pIC50 [1] | pIC50 [2] | pIC50 [3] | pIC50 [4]
1 | c1ccc(Cc2cnc(N3CCN(c4ncnc(Nc5cnn(CC6CNC6)c5)n4)CC3)nc2)cc1 [Compound 51] | 7.00 to 7.96 | 7.00 to 8.00 | > 9.00 | 
2 | c1ccc(Cc2cnc(N3CCN(c4ncnc(Nc5cnn(CC6CCOCC6)c5)n4)CC3)nc2)cc1 [Compound 118] | > 8.00 | 7.00 to 8.00 | > 9.00 | 
3 | CP(C)(=O)c1ccc(Nc2ncnc(N3CCN(c4ncc(Cc5ccccc5)cn4)CC3)n2)cc1 [Compound 89] | 7.00 to 7.96 | 6.00 to 7.00 | > 9.00 | 
4 | c1ccc(Cc2cnc(N3CCN(c4ncnc(Nc5ccc(N6CCOCC6)cc5)n4)CC3)nc2)cc1 [Compound 103] | 7.00 to 7.96 | 6.00 to 7.00 | 8.00 to 9.00 | 
5 | OCc1ccc(Nc2ncnc(N3CCN(c4ncc(Cc5ccccc5)cn4)CC3)n2)cc1 [Compound 16] | 7.00 to 7.96 | 6.00 to 7.00 | > 9.00 | 
6 | c1ccc(Cc2cnc(N3CCN(c4ncnc(Nc5cccc(O[C@@H]6CCNC6)c5)n4)CC3)nc2)cc1 [Compound 106] |  |  |  | 8.00 to 9.00
7 | c1ccc(Cc2cnc(N3CCN(c4ncnc(Nc5ccc(OC[C@@H]6CCCN6)cc5)n4)CC3)nc2)cc1 [Compound 170] | 7.00 to 7.96 | 7.00 to 8.00 | > 9.00 | 
8 | CN1CCN(c2ccc(Nc3ncnc(N4CCN(c5ncc(Cc6ccccc6)cn5)CC4)n3)cc2F)CC1 [Compound 237] | 7.00 to 7.96 | 7.00 to 8.00 | > 9.00 | 
9 | CC(O)c1cccc(Nc2ncnc(N3CCN(c4ncc(Cc5ccccc5)cn4)CC3)n2)c1 (stereo not shown) [Compound 26] | 7.00 to 7.96 | 6.00 to 7.00 | 8.00 to 9.00 | 
10 | CC(C)(O)c1cccc(Nc2ncnc(N3CCN(c4ncc(Cc5ccccc5)cn4)CC3)n2)c1 [Compound 50] | 7.00 to 7.96 | 5.00 to 6.00 | 8.00 to 9.00 | 
11 | CN(C)CCn1cc(Nc2ncnc(N3CCN(c4ncc(Cc5ccccc5)cn4)CC3)n2)cn1 [Compound 60] | 7.00 to 7.96 | 7.00 to 8.00 | > 9.00 | 
12 | c1ccc(Cc2cnc(N3CCN(c4ncnc(Nc5cccc(N6CCOCC6)c5)n4)CC3)nc2)cc1 [Compound 104] | 7.00 to 7.96 | 6.00 to 7.00 | 8.00 to 9.00 | 
13 | c1ccc(Cc2cnc(N3CCN(c4ncnc(Nc5cc[nH]n5)n4)CC3)nc2)cc1 [Compound 5] | 6.00 to 7.00 | 5.00 to 6.00 | 8.00 to 9.00 | 
14 | c1ccc(Cc2cnc(N3CCN(c4ncnc(Nc5cnn(C[C@H]6CCCN6)c5)n4)CC3)nc2)cc1 [Compound 84] | > 8.00 | 7.00 to 8.00 | > 9.00 | 
15 | CN1CCC[C@@H](Oc2ccc(Nc3ncnc(N4CCN(c5ncc(Cc6ccccc6)cn5)CC4)n3)cc2)C1 [Compound 216] | > 8.00 | > 8.00 | > 9.00 | 
16 | CS(=O)(=O)c1ccc(Nc2ncnc(N3CCN(c4ncc(Cc5ccccc5)c(O)n4)CC3)n2)cc1 [Compound 143] | 7.00 to 7.96 | 6.00 to 7.00 | 8.00 to 9.00 | 
17 | Oc1ccccc1Cc1cnc(N2CCN(c3ncnc(Nc4ccc5c(c4)CNCC5)n3)CC2)nc1 [Compound 115] | > 8.00 | 7.00 to 8.00 | > 9.00 | 
18 | CP(C)(=O)c1ccc(Nc2ncnc(N3CCN(c4ncc(Nc5ccc(F)cc5)cn4)CC3)n2)cc1 [Compound 144] | 7.00 to 7.96 | 6.00 to 7.00 | 8.00 to 9.00 | 
19 | NCc1cccc(Nc2ncnc(N3CCN(c4ncc(Cc5ccccc5)cn4)CC3)n2)c1 [Compound 14] | 7.00 to 7.96 | 6.00 to 7.00 | > 9.00 | 

The next lines start with the values.

Row | pIC50 [1] | pIC50 [2] | pIC50 [3] | pIC50 [4] | SMILES
20 | > 8.00 | 7.00 to 8.00 | > 9.00 |  | CN1CCN(c2ccc(Nc3ncnc(N4CCN(c5ncc(Cc6ccccc6)cn5)CC4)n3)cc2)CC1 [Compound 156]
21 | > 8.00 | 7.00 to 8.00 | > 9.00 |  | c1ccc(Cc2cnc(N3CCN(c4ncnc(Nc5ccc6c(c5)CNCCO6)n4)CC3)nc2)cc1 [Compound 76]
22 | > 8.00 | 7.00 to 8.00 | > 9.00 |  | COCCN1CCc2ccc(Nc3ncnc(N4CCN(c5ncc(Cc6ccccc6)cn5)CC4)n3)cc2C1 [Compound 215]
23 | 7.00 to 7.96 | 7.00 to 8.00 | > 9.00 |  | c1ccc(Cc2cnc(N3CCN(c4ncnc(Nc5cnn(CC6CCOC6)c5)n4)CC3)nc2)cc1 (stereo not shown) [Compound 86]
24 | > 8.00 | 7.00 to 8.00 | > 9.00 |  | c1ccc(Cc2cnc(N3CCN(c4ncnc(Nc5ccc6c(c5)CNCC6)n4)CC3)nc2)cc1 [Compound 41]
25 | 7.00 to 7.96 | 7.00 to 8.00 | 8.00 to 9.00 |  | CS(=O)(=O)c1ccc(Nc2ncnc(N3CCN(c4ncc(Cc5ccccc5)cn4)CC3)n2)cc1 [Compound 94]
26 | 7.00 to 7.96 | 6.00 to 7.00 | 8.00 to 9.00 |  | C[C@@H]1CN(c2ncnc(Nc3ccc(P(C)(C)=O)cc3)n2)CCN1c1ncc(Cc2ccccc2)cn1 [Compound 128]
27 | > 8.00 | > 8.00 | > 9.00 |  | OCCC1CN(c2ncnc(Nc3ccc4c(c3)CNCC4)n2)CCN1c1ncc(Cc2ccccc2)cn1 (stereo not shown) [Compound 164]
28 | 7.00 to 7.96 | 6.00 to 7.00 | 8.00 to 9.00 |  | C[C@@H]1CN(c2ncnc(Nc3ccc(N4CCOCC4)cc3)n2)CCN1c1ncc(Cc2ccccc2)cn1 [Compound 159]
29 | 7.00 to 7.96 | 7.00 to 8.00 | 8.00 to 9.00 |  | c1ccc(Cc2cnc(N3CCN(c4ncnc(Nc5ccc6c(c5)NCCC6)n4)CC3)nc2)cc1 [Compound 42]
30 | > 8.00 | 7.00 to 8.00 | > 9.00 |  | COCCn1cc(Nc2ncnc(N3CCN(c4ncc(Cc5ccccc5)cn4)CC3)n2)cn1 [Compound 31]
31 | > 8.00 | > 8.00 | > 9.00 |  | CN1CCC[C@@H]1COc1ccc(Nc2ncnc(N3CCN(c4ncc(Cc5ccccc5)c(N)n4)CC3)n2)cc1 [Compound 265]
32 | 7.00 to 7.96 | 7.00 to 8.00 | > 9.00 |  | c1ccc(Cc2cnc(N3CCN(c4ncnc(Nc5ccc(OC[C@H]6CCCN6)cc5)n4)CC3)nc2)cc1 [Compound 169]
33 | 7.00 to 7.96 | 6.00 to 7.00 | 8.00 to 9.00 |  | Cc1cc(N2CCNCC2)ccc1Nc1ncnc(N2CCN(c3ncc(Cc4ccccc4)cn3)CC2)n1 [Compound 158]
34 | > 8.00 | 7.00 to 8.00 | > 9.00 |  | CN1CCC[C@H]1COc1ccc(Nc2ncnc(N3CCN(c4ncc(Cc5ccccc5)cn4)CC3)n2)cc1 [Compound 219]
35 | 7.00 to 7.96 | 7.00 to 8.00 | > 9.00 |  | OCC(O)Cn1cc(Nc2ncnc(N3CCN(c4ncc(Cc5ccccc5)cn4)CC3)n2)cn1 (stereo not shown) [Compound 64, 3-(4-(4-(4-(5-benzylpyrimidin-2-yl)piperazin-1-yl)-1,3,5-triazin-2-ylamino)-1H-pyrazol-1-yl)propane-1,2-diol]
36 | 6.00 to 7.00 | 6.00 to 7.00 | 8.00 to 9.00 |  | CC(=O)c1cccc(Nc2ncnc(N3CCN(c4ncc(Cc5ccccc5)cn4)CC3)n2)c1 [Compound 22]
37 | 7.00 to 7.96 | 7.00 to 8.00 | > 9.00 |  | c1ccc(Cc2cnc(N3CCN(c4ncnc(Nc5cnn(C[C@@H]6CCCN6)c5)n4)CC3)nc2)cc1 [Compound 85]
38 | 6.00 to 7.00 | 6.00 to 7.00 | 8.00 to 9.00 |  | FC(F)(F)CN1CCc2ccc(Nc3ncnc(N4CCN(c5ncc(Cc6ccccc6)cn5)CC4)n3)cc2C1 [Compound 268]
39 | > 8.00 | > 8.00 | > 9.00 |  | CN1CCC[C@H](Oc2ccc(Nc3ncnc(N4CCN(c5ncc(Cc6ccccc6)cn5)CC4)n3)cc2)C1 [Compound 217]
40 | 7.00 to 7.96 | 7.00 to 8.00 | > 9.00 |  | CN(C)Cc1cccc(Nc2ncnc(N3CCN(c4ncc(Cc5ccccc5)cn4)CC3)n2)c1 [Compound 49]
41 | > 8.00 | 7.00 to 8.00 | > 9.00 |  | Fc1ccccc1Cc1cnc(N2CCN(c3ncnc(Nc4ccc5c(c4)CNCC5)n3)CC2)nc1 [Compound 127]
42 | > 8.00 | > 8.00 | > 9.00 |  | FC1(Cn2cc(Nc3ncnc(N4CCN(c5ncc(Cc6ccccc6)cn5)CC4)n3)cn2)CCNCC1 [Compound 191]
43 | 7.00 to 7.96 | 7.00 to 8.00 | > 9.00 |  | CN1CCO[C@@H](Cn2cc(Nc3ncnc(N4CCN(c5ncc(Cc6ccccc6)cn5)CC4)n3)cn2)C1 [Compound 180]
